What was measured:
hPPARβ/δ = target: T1, hPPARβ/δ (Homo sapiens, UniProt Q03181); experiment: PPAR transactivation assay, human chimeric PPAR/Gal4 reporter luciferase system in Cos-7 cells (PPARβ/δ); type: cell-based
T1 sequence (Q03181 171-441): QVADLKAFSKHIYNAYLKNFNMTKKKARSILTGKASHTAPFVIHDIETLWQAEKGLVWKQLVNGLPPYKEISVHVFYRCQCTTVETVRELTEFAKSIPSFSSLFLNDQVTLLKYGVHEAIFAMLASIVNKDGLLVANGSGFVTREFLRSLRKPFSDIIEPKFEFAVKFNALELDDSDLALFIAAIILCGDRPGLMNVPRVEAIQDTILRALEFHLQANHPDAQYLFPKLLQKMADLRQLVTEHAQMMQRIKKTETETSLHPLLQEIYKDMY
Procedure: (§1) Transfections were stopped after 16 h by adding DMEM/10% FCS. Cells were detached with trypsin, re-seeded in 96-well plates for 6 h in DMEM/10% FCS, and incubated for 24 h in DMEM/0.2% FCS with increasing concentrations of the test compounds or vehicle (DMSO, 0.1% final concentration). At the end of the experiment, cells were washed once with ice-cold PBS, lysed, and luciferase and β-galactosidase activities were measured. Luciferase activity was normalised to that of the internal control, β-galactosidase. All transfection experiments were performed at least five times.
(§2) EC50 values against human PPARα/Gal4, PPARβ/δ/Gal4 and PPARγ/Gal4 receptors.

[1] = test system: TNFα-induced proinflammatory genes; experiment: TNFα-induced pro-inflammatory gene expression by RT-qPCR in L929sA WT cells; type: cell-based, mouse; details: 10 µM for 1 h, then TNFa, total induction time 6 h
Procedure: RNA was isolated using the RNeasy Purification Kit (Qiagen) according to the manufacturer's instructions. cDNA was synthesised using a PrimeScript kit (Takara). RT-qPCR was performed using Light Cycler 480 SYBR Green I Master Mix (Roche).
PPARs play crucial roles in controlling inflammatory responses. NF-κB is a transcription factor that plays a pivotal role in the expression of multiple genes involved in the immune and inflammatory responses. To study the potential anti-inflammatory effects of the tetrahydroquinolines and quinolines of the invention, the NF-κB-dependent physiological human IL-8 promoter construct, p1481.IL8P-Luc+, which is stably integrated into L929sA cells, was tested. After transfection, cells were treated at 10 µM with 5a, 5b, 8a, or 8b prior to TNFa stimulation. […] Given the significant decrease in NF-κB-IL8P-Luc+ reporter gene activity observed after treatment with the 2- or 3-prenylated tetrahydroquinolines 5a and 5b and the 3-prenylated quinoline 8b, their potential anti-inflammatory effects at the transcriptional level for other inflammatory mediators was evaluated. To achieve this, the L929sA WT cells were treated with 5a, 5b and 8b at 10 µM for 1 h, followed by TNFa stimulation for a total induction time of 6 h. The expression of inflammatory genes was evaluated by RT-qPCR.

[2] = test system: hPPARα, hPPARβ/δ, and hPPARγ; experiment: PPAR transactivation assays, agonist profile over the three isoforms; details: always with partial activity on the PPARγ isoform
ob/ob mice = experiment: Gene expression (qPCR) in liver and epididymal white adipose tissue of ob/ob mice; type: in vivo; details: epididymal white adipose tissue and/or liver of ob/ob mice, 10 mg/kg/day, 15 days orally
Procedure: Animal studies were carried out in accordance with Directive 2010/63/EU for experimentation on animals. The handling of the animals and the experimental protocols were approved by the Animal Experimentation Ethics Committee of the University of Valencia (Protocol No. A1469445706311). Six-week-old male ob/ob mice (C57BL/6.Cg-Lepob/J) were supplied by Charles River Laboratories International (Wilmington, MA). Blood samples were collected from mice fasted for 6 hours to determine basal blood glucose levels. The animals, randomly divided into two groups (N ≈ 10-11 per group), were treated daily with vehicle (1% hydroxyethyl cellulose, Sigma-Aldrich) or with tetrahydroquinoline 5a at 10 mg/kg/day, for 15 days orally. After 15 days of treatment, and 6 h of fasting, the mice were anesthetized by inhalation of isoflurane and blood samples were collected in tubes with heparin or EDTA by intracardiac puncture. Plasma samples were obtained and stored at -80°C. Liver and epididymal white adipose tissue were removed and part of both organs were quickly frozen in liquid N2 for qPCR studies.
Gene expression analysis was carried out by real-time qPCR. To this end, total RNA was extracted from liver and epididymal white adipose tissue biopsies using TRIzol reagent (Invitrogen, Carlsbad, CA, USA). The isolated RNA was retro-transcribed using the Maxima First-Strand kit and amplified with a Luminaris Color qPCR MasterMIX (Fermentas, Whaltham, MA, USA) in a 7900 FastSystem thermal cycler. The mRNA levels were normalized to the expression of the constitutive gene cyclophilin.

hPPARγ = target: T2, hPPARγ (Homo sapiens, UniProt P37231); experiment: PPAR transactivation assay, human chimeric PPAR/Gal4 reporter luciferase system in Cos-7 cells (PPARγ); type: cell-based
T2 sequence (P37231 238-505): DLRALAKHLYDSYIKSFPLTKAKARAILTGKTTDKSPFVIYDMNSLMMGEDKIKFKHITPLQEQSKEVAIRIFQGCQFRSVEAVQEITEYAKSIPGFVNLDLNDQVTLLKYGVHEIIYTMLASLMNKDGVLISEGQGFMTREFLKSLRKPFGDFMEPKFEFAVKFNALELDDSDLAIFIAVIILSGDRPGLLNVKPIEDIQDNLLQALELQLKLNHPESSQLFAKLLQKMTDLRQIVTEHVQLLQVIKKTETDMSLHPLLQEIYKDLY
Procedure: as §1, §2

SMILES: CCOC(=O)CC/C(C)=C/CCC1CCc2cc(OCc3ccccc3)ccc2N1C (stereo not drawn) [Compound 5a, Ethyl (E)-7-(6-(benzyloxy)-1-methyl-1,2,3,4-tetrahydroquinolin-2-yl)-4-methylhept-4-enoate]
- Emax at 10 µM (hPPARβ/δ; COS-7, read-out: Efficacy (%) at 10 µmol/L PPARβ/δ): 60%
- EC50 (hPPARβ/δ; human PPARβ/δ/Gal4, Cos-7 cells, concentration range 0.001-10 µmol/L, NA: not active): 2.6 µM
- transcription of TNFα-induced proinflammatory genes [1]: downregulated the transcription of TNFα-induced proinflammatory genes such as Cc/5 and II-6
- PPAR agonist activity profile [2]: pan-PPAR agonist activity
- expression of Acox1 (ob/ob mice): increased
- expression of Cpt1a (ob/ob mice): increased
- expression of Pdk4 (ob/ob mice): increased
- Emax at 10 µM (hPPARγ; COS-7, read-out: Efficacy (%) at 10 µmol/L PPARγ): 43%
- EC50 (hPPARγ; human PPARγ/Gal4, Cos-7 cells, concentration range 0.001-10 µmol/L, NA: not active): 2.7 µM
